Earlier results on 3 compounds are cited in doi:10.1101/2023.05.15.540887, “Comparative analysis of drug-like EP300/CREBBP acetyltransferase inhibitors” (bioRxiv, 2023).

SMILES strings stand for the structures.

Holding throughout (set-up): method as in ref 29 (a number printed in a supplementary file, which may have a reference list of its own: not looked up in the article's list)
One data set relates to MDA-MB-231/ATCC. Particulars: Breast MDA-MB-231/ATCC; highest log conc -4.0; NCI-60 screen data; cited from earlier work.
In a further data set the test system is SF-539. To be noted: CNS SF-539; highest log conc -4.0; NCI-60 screen data; cited from earlier work.
For another data set, the system named is SN12C. Particulars: Renal SN12C; highest log conc -4.0; NCI-60 screen data; cited from earlier work.
The next data set relates to HL-60(TB). To be noted: Leukemia HL-60(TB); highest log conc -4.0; NCI-60 screen data; cited from earlier work.
A further data set deals with PC-3. To be noted: Prostate PC-3; highest log conc -4.0; NCI-60 screen data; cited from earlier work.
The test system of the next data set is DU-145. Particulars: Prostate DU-145; highest log conc -4.0; NCI-60 screen data; cited from earlier work.
A further data set has as its system SR. To be noted: Leukemia SR; highest log conc -4.0; NCI-60 screen data; cited from earlier work.
The next data set deals with MDA-MB-468. To be noted: Breast MDA-MB-468; highest log conc -4.0; NCI-60 screen data; cited from earlier work.
The next data set concerns UACC-62. To be noted: Melanoma UACC-62; highest log conc -4.0; NCI-60 screen data; cited from earlier work.
For the next data set, the system named is SW-620. To be noted: Colon SW-620; highest log conc -4.0; NCI-60 screen data; cited from earlier work.
The next data set relates to HCC-2998. Particulars: Colon HCC-2998; highest log conc -4.0; NCI-60 screen data; cited from earlier work.
The next data set concerns MCF7. To be noted: Breast MCF7; highest log conc -4.0; NCI-60 screen data; cited from earlier work.
Another data set has as its system COLO205. Particulars: Colon COLO205; highest log conc -4.0; NCI-60 screen data; cited from earlier work.
For another data set, the system named is SF-268. Particulars: CNS SF-268; highest log conc -4.0; NCI-60 screen data; cited from earlier work.
Another data set relates to M14. Particulars: Melanoma M14; highest log conc -4.0; NCI-60 screen data; cited from earlier work.
Another data set relates to OVCAR-4. Particulars: Ovarian OVCAR-4; highest log conc -4.0; NCI-60 screen data; cited from earlier work.
A further data set has as its system OVCAR-8. To be noted: Ovarian OVCAR-8; highest log conc -4.0; NCI-60 screen data; cited from earlier work.
In a further data set the test system is HCT-116. To be noted: Colon HCT-116; highest log conc -4.0; NCI-60 screen data; cited from earlier work.
The subject of the next data set is MALME-3M. To be noted: Melanoma MALME-3M; highest log conc -4.0; NCI-60 screen data; cited from earlier work.
For a further data set, the system named is MOLT-4. To be noted: Leukemia MOLT-4; highest log conc -4.0; NCI-60 screen data; cited from earlier work.
The subject of the next data set is HS578T. To be noted: Breast HS578T; highest log conc -4.0; NCI-60 screen data; cited from earlier work.

With `COC(=O)N1c2ccc3c(nc(Cc4ccccc4)n3[C@H]3CCC[C@H](C(=O)O)C3)c2CC[C@@H]1C` [FT-6876], the “GI50 AVGDATA” value in the data set on MDA-MB-231/ATCC was -4.8; in the data set with SF-539, -4.8; in the data set on SN12C it was -4.76; with HL-60(TB), -5.5; in the data set on PC-3 it was -5.25; in the data set with DU-145, -4.03. For the same compound, the “GI50 AVGDATA” value in the data set on SR was -4.86; in the data set on MDA-MB-468, -5.42; in the data set on UACC-62 it was -5.68; with SW-620, -4.33; with HCC-2998 it was -5.08; with MCF7 it was -6.94. Moreover, the “GI50 AVGDATA” value is reported as -5.31 in the data set on COLO205; -4.56 in the data set with SF-268; -5.23 with M14; -5.17 in the data set on OVCAR-4; -4.55 with OVCAR-8; -4.75 in the data set on HCT-116. Moreover, the “GI50 AVGDATA” value in the data set on MALME-3M is recorded as -5.21; with MOLT-4 it was -4.84; in the data set on HS578T, -5.49.
With `Cc1sc2c(c1C)C(c1ccc(Cl)cc1)=N[C@@H](CC(=O)OC(C)(C)C)c1nnc(C)n1-2` [JQ-1], the “GI50 AVGDATA” value in the data set on MDA-MB-231/ATCC is on record as -6.52; with SF-539, -6.34; in the data set on SN12C, -5.71; in the data set on HL-60(TB), -7.52; with PC-3 it was -5.96; with DU-145, -5.07. Moreover, the “GI50 AVGDATA” value in the data set with SR is recorded as -7.35; in the data set on MDA-MB-468, -6.95; in the data set with UACC-62, -7.16; in the data set with SW-620 it was -5.39; in the data set with HCC-2998, -6.54; with MCF7, -7.22. Besides, the “GI50 AVGDATA” value is given as -6.84 with COLO205; -5.33 with SF-268; -6.11 in the data set on M14; -6.82 in the data set on OVCAR-4; -6.21 in the data set on OVCAR-8; -6.51 in the data set with HCT-116. Moreover, the results for the “GI50 AVGDATA” value with MALME-3M, in the data set on MOLT-4 and with HS578T were -5.32, -5.74 and -7.25, respectively.
On to `CO[C@H]1CC[C@H](n2c([C@@H]3CCCC(=O)N3c3ccc(F)c(F)c3)nc3cc(-c4c(C)noc4C)ccc32)CC1` [inobrodib], for which the “GI50 AVGDATA” value in the data set with MDA-MB-231/ATCC was -5.07; in the data set with SF-539 it was -5.01; in the data set with SN12C it was -4.99; with HL-60(TB), -6.07; in the data set with PC-3, -5.46; in the data set with DU-145, -4.77. For the same compound, the “GI50 AVGDATA” value is recorded as -6.12 in the data set with SR; -5.4 with MDA-MB-468; -5.6 with UACC-62; -4.72 in the data set on SW-620; -5.38 in the data set with HCC-2998; -6.2 with MCF7. Also, the “GI50 AVGDATA” value in the data set on COLO205 is recorded as -5.67; with SF-268, -4.83; in the data set with M14, -5.73; with OVCAR-4, -6.11; with OVCAR-8, -4.99; in the data set with HCT-116, -5. Further, the “GI50 AVGDATA” value in the data set on MALME-3M is -5.76; with MOLT-4, -4.77; in the data set on HS578T it was -5.68.
